“Also recorded” adds a separate entry of the source. Where no end group is shown, it is not given here.
Tests used:
E. coli O157:H7 = details: cited from earlier work
Protocol: Salt ions in serum are important factors affecting the antibacterial activity of AMPs in vivo because they can bind to the negatively charged groups of lipopolysaccharide (LPS), a monolayer molecule on the outer membrane of Gram-negative bacteria ([29]). […] But in the presence of physiological concentrations of CaCl2, the MIC of OaBac5mini increased four-fold and attained 100 μg/ml (Table 2). It has been reported that the ...

trypsin = assay: Digestive enzyme sensitivity (inhibition zone assay); details: 37°C, 3 h, 50 μg/ml peptide, inhibition zone assay against E. coli ATCC 25922, repeated three times
Protocol: The sensitivities of OaBac5mini to different pH, temperature, digestive enzymes, and repeated freeze-thawing conditions were determined using the inhibition zone assay as previously described ([23]). For pH sensitivity, OaBac5mini was diluted with each solution whose pH was individually adjusted to 2, 3, 4, 5, 6, 7, 8, 9, 10, 11 with HCl or NaOH, and incubated for 2 h, followed by adjusting the pH to 7 to end the reaction. For temperature sensitivity, the diluted peptide was incubated at 30, 40, 50, 60, 70, 80, 90, and 100°C for 30 min. To determine the digestive enzymes sensitivity, OaBac5mini was incubated with 100 μg/ml pepsin (in pH 2 sterile water, sigma, USA), 5–100 μg/ml trypsin (in pH 6.8 KH2PO4 buffer, sigma, USA) and 100 μg/ml protease K (Solarbio, China) at 37°C for 3 h, respectively. To end the reaction after incubation, the pepsin buffer was adjusted to pH 8, the trypsin solution and protease K solution were incubated at 95°C for 10 min. For repeated freeze-thawing sensitivity, OaBac5mini was frozen and then thawed at room temperature 0–12 times. All the final concentrations of OaBac5mini in sensitivity tests were 50 μg/ml. All experiments were repeated three times.

E. coli ATCC 25922 ΔsbmA = details: two-fold broth microdilution, CLSI; three independent occasions; sbmA deletion mutant
Protocol: The method described by Datsenko and Wanner was used for chromosomal gene deletion ([20]). […] The PCR fragment (1,567 bp) was purified, digested with DpnI, repurified and transferred into E. coli ATCC 25922 by electroporation, in which the Red recombinase expression plasmid pKD46 was previously transformed and induced by L-arabinose. Transformants were selected on Luria-Bertani (LB) agar containing 50 μg/ml of kanamycin at 37°C. The inserted sequence was amplified from the kanamycin-resistant strains by using the primers SBMF: 5′-[…]-3′ and SBMR: 5′-[…]-3′ which is located outside of inactivated gene. The length of the PCR product of sbmA using the primers set SBMF and SBMR in E. coli ATCC 25922 is 1,404 bp. When sbmA is successfully inactivated, the PCR product (2,198 bp) was amplified and sequenced for the verification of the gene deletion.
MICs of OaBac5mini, amoxicillin, kanamycin, florfenicol and tetracycline were determined using the two-fold broth microdilution method according to the Clinical and Laboratory Standards Institute (CLSI) guidance ([21]). MIC values of the tested antibacterial agents were determined on three independent occasions. Escherichia coli ATCC 25922 was used as the quality control in all the susceptibility tests.

Gram-negative bacteria = details: cited from earlier work
Description: (§1) Antimicrobial peptides (AMPs) are small molecular peptides in living organisms and serve as natural barriers against the invasion of pathogenic microorganisms ([5]). They are often referred to as cationic host defense peptides (HDPs) or cationic antimicrobial peptides (CAMPs) ([6]). Cathelicidins are one of the best characterized AMP families. Each cathelicidin includes an N-terminal signal domain, a cathelin-like domain, and an antimicrobial C-terminal domain ([7]). Among them, the proline-rich antibacterial peptides (PrAMPs) have been attracting the close attention of researchers due to thei ...

[1] = test system: Gram-positive bacteria and C. albicans; details: cited from earlier work
Description: as §1

E. coli ATCC 25922 = assay: Integrity of the inner membrane (DiSC3(5)); type: cell-based, Escherichia coli; details: 25, 50, 100 and 200 μg/ml; 1 μM DiSC3(5); within 30 min; P < 0.05; n = 3
Protocol: If the membrane is depolarized or disrupted, DiSC3(5) is released into the aqueous medium and leads to increased fluorescence. The DiSC3(5) assay was conducted following the instruction of Sautrey et al. ([26]) with minor modifications. […] Fluorescence units were investigated immediately using INFINITE 200 PRO (Infinite® 2000, TECAN, Austria) at the excitation wavelength of 620 nm and emission wavelength of 670 nm for 30 min at 1 min intervals. Triple experiments were conducted with three individual clones of E. coli ATCC 25922.

RFRPPIRRPPIRPPFRPPFRPPVR [OaBac5mini]
MIC against E. coli O157:H7 in the presence of 100 mM NaCl (E. coli O157:H7): about 30 μg/ml
Antibacterial activity after treatment with trypsin 20 to 100 μg/ml (trypsin; trypsin 20 to 100 μg/ml in pH 6.8 KH2PO4 buffer): completely lost activity
Antibacterial activity after treatment with trypsin at low concentrations (trypsin; trypsin ≤ 10 μg/ml (< 20 μg/mL) in pH 6.8 KH2PO4 buffer): stable antibacterial activity; also recorded: no significant effect
MIC against E. coli ATCC 25922 ΔsbmA (E. coli ATCC 25922 ΔsbmA): 100 µg/mL
MICs against Gram-negative bacteria (Gram-negative bacteria): 0.125 to 8 µg/mL
MICs against Gram-positive bacteria and C. albicans [1]: 16 to 64 µg/mL
Average fluorescence intensity of DiSC3(5) (inner membrane integrity) (E. coli ATCC 25922): significantly increased

From paper PMC9995905, “Characteristics of antimicrobial peptide OaBac5mini and its bactericidal mechanism against Escherichia coli” (Frontiers in Veterinary Science, 2023)
